Experimental data as given in patent US20140271573A1, “PHARMACO-CELLULAR THERAPEUTIC METHOD FOR THE TREATMENT OF MUSCULAR DYSTROPHIES” (PONTIFICIA UNIVERSIDAD CATÓLICA DE CHILE, priority 2013, published 2014).
Entries after “also recorded” stand apart in the source; their conditions may differ.

Columns and labels:
mdx mice [1] = assay: Collagen and fibronectin in tibialis anterior muscle of mdx mice, immunofluorescence and western blot; type: in vivo, mouse; details: exercised mdx mice, 1 mg/kg i.p. 3 times per week for 3 months
Description: FIG. 5. Andrographolide reduced skeletal muscle fibrosis in mdx mice. To augment the extent of muscle fibrosis, 3 months old mdx mice were subjected to an exercise protocol for 3 months. Along this period one group was treated with 1 mg/kg andrographolide or vehicle (i.p. injections 3 time per week, 6 animal per group). A) Detection of collagen I and fibronectin by indirect immunofluorescence analysis in cryosections of tibialis anterior muscles from WT, Vehicle-treated mdx and andrographolide-treated mdx mice. Bar corresponds to 200 μm. B) fibronectin (FN) protein levels were detected by western blot analysis in extracts obtained from tibialis Anterior muscles from WT, Vehicle-treated mdx and andrographolide-treated mdx mice. […] GAPDH protein levels are shown as loading control; molecular weight markers are shown in kDa.
For immunoblot analyses, muscles were homogenized in 10 volume Tris-EDTA buffer with 1 mM PMSF as described previously (Morales et al., 2011). Briefly, proteins were determined in aliquots of muscle extracts using the bicinchoninic acid protein assay kit (Pierce, Ill.) using BSA as standard. Aliquots (50-100 μg) were subjected to SDS gel electrophoresis in 8% or 10% polyacrylamide gels, electrophoretically transferred onto PVDF membranes (Schleicher & Schuell) and probed with specific antibodies against fibronectin (Sigma-Aldrich, USA), collagen III (Rockland, USA and GAPDH (Millipore, USA), tubulin (Sigma-Aldrich, USA) and GAPDH (Sigma-Aldrich, USA). All immunoreactions were visualized by enhanced chemiluminescence kit (Pierce, USA). Densitometric analysis and quantification were performed using ImageJ software (NIH, USA) (Cabello-Verrugio et al., 2012).
(§1) Control or mdx (12 weeks old) male mice of C57BL/10 ScSn strain were studied. The animals were kept at room temperature with a […] night-day cycle and fed with pellets and water ad libitum. Experimental exercise was performed for running the mice in a treadmill for three times per week, 30 minutes each time at 12 m/min during 3 or 4 months (De Luca et al., 2005; De Luca et al., 2003). […]

mdx mice [2] = assay: Serum creatine kinase (CK) measurement in mdx mice; type: in vivo, mouse; details: exercised mdx mice, 1 mg/kg i.p. 3 times per week for 3 months, vs vehicle
Description: (§2) FIG. 4. Andrographolide reduced skeletal muscle damage in mdx mice. To augment the extent of muscle fibrosis, 3 months old mdx mice were subjected to an exercise protocol for 3 months. Along this period one group was treated with 1 mg/kg andrographolide or vehicle (i.p. injections 3 time per week, 6 animal per group). […] B) Evans blue dye uptake in tibialis anterior muscle fibers from wild-type (WT), Vehicle-treated mdx and andrographolide-treated mdx mice. Nuclei were labeled with Hoechst. Mice were injected i.p. with 1% Evans blue dye 24 hours before muscle fixation. Bar corresponds to 200 μm. […] Values are expressed as mean±SD of three independent experiments, using eight mice for each experimental condition. (*, P<0.05 relative to WT mice; #, P<0.05 relative to Vehicle-treated mdx mice).
(§3) Control or mdx (12 weeks old) male mice of C57BL/10 ScSn strain were studied. The animals were kept at room temperature with a […] night-day cycle and fed with pellets and water ad libitum. […]
Mice were anesthetized by isofluorane gas, and blood was obtained from the periorbital vascular plexus directly into microhematocrit tubes (70 μl, Fisher Scientific). […] Serum CK was measured by enzymatic system (Valtek, Chile) according to the manufacturer instructions) (Osses and Brandan, 2002).

TGF-β1 = TGF-β1 mRNA levels in tibialis anterior muscle of exercised mdx mice, RT-qPCR; type: in vivo, mouse; details: 1 mg/kg i.p. 3 times per week for 3 months, vs vehicle
Description: FIG. 2. Andrographolide reduced expression and activity of the pro-fibrotic cytokine, TGF-β1, in mdx mice. To augment the extent of muscle fibrosis, 3 months old mdx mice were subjected to an exercise protocol for 3 months. Along this period one group was treated with 1 mg/kg andrographolide or vehicle (i.p. injections 3 time per week, 4 animal per group). A) TGF-β1 mRNA levels, an important pro-fibrotic cytokine, were determined in tibialis anterior muscle from Wild type (WT), Vehicle-Treated mdx and andrographolide-treated mdx mice by RT-qPCR using GAPDH as reference gene. Values correspond to the mean of dCT value±SD of three independent experiments, using four mice for each experimental condition and normalized to WT levels (*, P<0.05 relative to WT mice; #, P<0.05 relative to Vehicle-treated mdx mice). B) Detection of pSmad-2 (an intracellular TGF-β1 mediator) through indirect immunofluorescence analysis in cryosections of tibialis anterior muscle from Vehicle-treated and andrographolide-treated mdx mice. Bar corresponds to 200 μm.
as §3

CTGF = CTGF expression induced by TGF-β1 in C2C12 cells, northern blot; type: cell-based, mouse; details: C2C12, 10 ng/ml TGF-β1, 50 μM andrographolide, 6 hrs
Description: FIG. 1. […] (Vial et al., 2008).

mdx mice [3] = assay: Evans blue dye uptake in tibialis anterior muscle fibers of mdx mice; type: in vivo, mouse; details: exercised mdx mice, 1 mg/kg i.p. 3 times per week for 3 months
Description: as §2, §1
Animals were injected with Evans Blue dye (1% in PBS) and allowed to stay for 24 hours. […] The percentage of Evans blue dye positive fibers was manually counted in a blinded manner (Straub et al., 1997).

## C=C1CC[C@@H]2[C@](C)(CO)[C@H](O)CC[C@@]2(C)[C@@H]1C/C=C1/C(=O)OC[C@H]1O [andrographolide]
Mdx mice [1]; tibialis anterior
  accumulation of collagen type I, immunofluorescence staining: strongly decrease
  accumulation of fibronectin, immunofluorescence staining: strongly decrease
Mdx mice [1]; tibialis anterior extracts
  fibronectin protein levels by western blot analysis: decreased
Mdx mice [2]
  serum CK levels: significant reduction; also recorded: decreased
TGF-β1
  expression of TGF-β1 (mRNA) in mdx mice: reduced
CTGF
  induction of CTGF expression in response to TGF-β1: reduced
Mdx mice [3]
  Evans blue dye uptake in muscle fibers: lower Evans blue dye uptake
